Test results as given in US20060084599A1, “Compositions, methods and kits relating to notch signaling” (Maine Medical Center, priority 2003, published 2006).

Tests used:
[1] = test system: CSL1-dependent transcription; experiment: Dual luciferase reporter assay of CSL1-dependent transcription (Example 2); type: cell-based, murine; conditions: for CSL1-dependent transcription, level relative to control: thrombin on full-length Jagged1 NIH 3T3 transfectants, sJ1 expression, 10 ng/ml exogenous FGF1
Protocol: Insert-less vector control and sJ1 NIH 3T3 cell transfectants (approximately 3×10^4) were plated on fibronectin-coated (10 μg/cm^2) cell culture dishes and the cells were transiently transfected at approximately 50% confluency with 500 ng of a luciferase construct containing four tandem copies of the CBF1 response element (Small et al., 2001, J. Biol. Chem. 276:32022-32030).
Cotransfection with 100 ng of the TK Renilla (Promega) construct was used as an internal control for transfection efficiency using Fugene 6 (Roche), according to the manufacturer's instructions. Cells were treated with or without 10, […] hours after transfection, harvested 48 hours after the transfection and luciferase/renilla activity measured using the Dual Luciferase Reporter Assay System (Promega). Each experiment was performed in triplicate.

[2] = test system: FGF1R136K NIH 3T3 cell transfectants; experiment: Thrombin stimulation and immunoblot analysis of FGF1 release; type: cell-based, murine
Protocol: FGF1R136K NIH 3T3 cell transfectants or adenovirally-transduced NIH 3T3 cells were washed with DMEM containing 5 units/ml of heparin (Sigma) and stimulated with either 10 μg/ml α-thrombin (a gift from Dr. J. Fenton) or 5 μM TRAP (Sigma) at 37° C. for different periods of time. Control cells were incubated in the absence of thrombin for the same time period. Conditioned media were collected at each time period, filtered, and concentrated as previously described (Jackson et al., 1992, Proc. Natl. Acad. Sci. U.S.A. 89:10691-10695). The concentrates were resolved by SDS-PAGE and subjected to immunoblot analysis using a rabbit antibody against either FGF1 (Jackson et al., 1992), Syt1 (LaVallee et al., 1998, J. Biol. Chem. 273:22217-22223) or Myc (Oncogene). The heat shock-induced release of FGF1 was performed at 42° C. for 110 minutes as previously described (Jackson et al., 1992). Cell viability was assessed by measuring lactate dehydrogenase activity in the conditioned medium after filtration as disclosed previously elsewhere herein (published as Mandinova et al., 2003, J. Cell Sci. 116:2687-2696), and total cell lysates were obtained and processed for immunoblot analysis as described (Landriscina et al., 2001, J. Biol. Chem. 276:22544-22552).
Stable FGF1R136K NIH 3T3 cell transfectants were pre-incubated with either 100 ng/ml pertussis toxin (PTX) or 10 ng/ml cholera toxin (CT) for 60 minutes at 37° C. in DMEM containing 10% BCS. After pre-incubation, the cells were washed, stimulated with 10 μg/ml of thrombin for different periods of time in the presence of either 100 ng/ml PTX or 10 ng/ml CT, conditioned medium collected, and subjected to immunoblot analysis as described above.

[3] = test system: NIH 3T3 cell transfectants; experiment: Colony formation in soft agar (anchorage-independent growth); type: cell-based, murine; conditions: stable NIH 3T3 cell transfectants expressing the ligand
Protocol: Clonal populations of NIH 3T3 cells stably transfected with vector control, soluble Jagged1 (sJ1), constitutively active Notch1 (caN1), constitutively active Notch 2 (caN2), dominant negative Notch 1 (dnN1), dominant negative Notch 2 (dnN2), an oncogenic mutant of FGF1 engineered with the FGF4 signal peptide sequence (hst-β (FGF4):FGF1), or constitutively active oncogenic Ras construct (caRas), were plated on 6 cm tissue culture dishes with 0.5% agar in an overlay containing DMEM (Gibco BRL) media, 10% bovine calf serum (BCS; Hyclone), and 0.33% agar at 1.5×10^3 cells/dish. As indicated, some dishes were also treated with 1 μM of the FGFR1-specific inhibitor, PD166866 (Panek et al., 1998, J. Pharmacol. Exp. Ther. 286: 569-577) and/or 10 ng/ml recombinant human FGF1 and 10 U/ml heparin (Sigma). Cells were fed with 0.5 ml of media with or without FGF1 and/or the FGFR1-specific inhibitor every 3 days as indicated. Twenty days after plating, colonies were stained with p-iodonitrotetrazolium violet (Sigma) for visualization. Quantitation of colony formation was achieved by counting all p-iodonitrotetrazolium violet-stained colonies consisting of more than 4 cells under a Zeiss Stemi SVII Apo dissecting microscope.
Anchorage-Dependent and -Independent Cell Growth Assays. Approximately 3×10^4 cells were plated on fibronectin (10 μg/cm^2)-coated in 12-well cell culture dishes (Falcon) in DMEM containing 10% BCS (v/v) (Hyclone). Three wells of the individual NIH 3T3 cell transfectants were harvested every third day and cell number was quantitated using a hemocytometer. Anchorage-independent cell growth was evaluated by plating in duplicate approximately 1.7×10^3 cells in DMEM containing 0.5% (w/v) agar (Sigma) 10% (v/v) BCS into 5 cm plastic dishes (Falcon) as previously described (Small et al., 2003, J. Biol. Chem. 278:16405-16413).

[4] = test system: NIH 3T3 cell transfectants; experiment: Immunofluorescence microscopy of actin stress fibers and focal adhesion sites; type: cell-based, mouse; conditions: stable NIH 3T3 cell transfectants expressing the ligand
Protocol: Immunofluorescence Microscopy. Cells were plated on glass coverslips and fixed with 4% (v/v) paraformaldehyde. Actin stress fibers were visualized by FITC-conjugated phalloidin (Sigma), a monoclonal anti-vinculin antibody (Sigma) was used to visualize focal adhesion sites, and a monoclonal anti-β-catenin antibody (BD Transduction Laboratories) and a monoclonal anti-pan cadherin antibody (Sigma) were both used to visualize cell-cell adhesions. Immunofluorescent staining and confocal microscopy were performed as previously described (Small et al., 2001, J. Biol. Chem. 276:32022-32030).

cortactin = experiment: Phosphotyrosine cortactin immunoblot; type: cell-based, mouse; conditions: stable NIH 3T3 cell transfectants expressing the ligand
Protocol: Immunoblot Analysis. Cell lysates from insert-less vector sDl1 and sJ1 NIH 3T3 cell transfectants were prepared in 20 mM Tris HCl, pH 7.5, containing 300 mM sucrose, 60 mM—KCl, 15 mM NaCl, 0.5 mM EDTA, 0.5% (v/v) Triton X-100, 1 mM phenylmethylsulfonyl fluoride, 10 μg/ml leupeptin, 2 μg/ml aprotinin, 0.1% (w/v) deoxycholic acid and 1 mM sodium orthovanadate. Samples of equal protein content were subjected to SDS-PAGE and immunoblot analysis was performed as previously described (Small et al., 2001, J. Biol. Chem. 276:32022-32030) using either a rabbit anti-Src [pY418] phosphospecific antibody (Biosource International), a rabbit anti-total Src antibody (Santa Cruz Biotechnology), a rabbit polyclonal anti-cortactin antibody (a gift from Dr. Xi Zhan, American Red Cross), or an anti-phosphotyrosine antibody (Upstate). Immunoprecipitation of cortactin was performed as previously described (Zhan et al., 1993, J. Biol. Chem. 268:24427-24431).

| Molecule | effect on Notch-dependent CSL1 activity ([1]; full-length Jagged1 NIH 3T3 cell transfectants) | CSL1-dependent transcription, level relative to control [1] | export of FGF2 [2] | thrombin concentration giving maximal release of FGF1R136K ([2]; 37° C.) [µg/mL] | time after which detectable extracellular FGF-1 was present ([2]; 37° C.) [min] | release of FGF1R136K into the extracellular compartment ([2]; 37° C., 10 μg/ml α-thrombin or 5 μM TRAP) | release of FGF1R136K from cells transduced with constitutively active Notch1 ([2]; caN1-transduced FGF1R136K NIH 3T3 cells) | release of S100A13 ([2]; cells co-expressing S100A13 and FGF1R136K, 37° C.) | release of p40 Syt1 ([2]; p40 Syt1-transduced FGF1R136K NIH 3T3 cells) | anchorage-independent growth of transfectants [3] | F-actin stress fibers and focal adhesion sites [4] | level of tyrosine-phosphorylated cortactin (cortactin) |
| --- | --- | --- | --- | --- | --- | --- | --- | --- | --- | --- | --- | --- |
| thrombin | able to reduce the level of Notch-dependent CSL1 activity in a dose-dependent manner | approximately 75 % of the control level | unable to induce the export of FGF2 | 10 | 5 | rapid and sustained appearance of the FGF1R136K mutant in the extracellular compartment | unable to initiate the release of the FGF1R136K mutant | presence of S100A13 in the extracellular compartment with kinetics similar to that observed with FGF1 | presence of p40 Syt1in the extracellular compartment |  |  |  |
| sJ1: Soluble Jagged1, amino acid residues about 1 to 1067 (SEQ ID NO:3) of full-length human Jagged1 |  | approximately 25 % of the control level |  |  | 5 |  |  |  |  | form colonies in soft agar | significantly reduced actin stress fibers and focal adhesion sites | increased level |
| sDl1: soluble non-transmembrane form (extracellular domain) of the Notch ligand Delta1 (protein, left off: small tags and cut ends, soluble non-transmembrane form (extracellular domain) of the Notch ligand Delta1) QVWSSGVFELKLQEFVNKKGLLGNRNCCRGGAGPPPCACRTFFRVCLKHYQASVSPEPPCTYGSAVTPVLGVDSFSLPDGGGADSAFSNPIRFPFGFTWPGTFSLIIEALHTDSPDDLATENPERLISRLATQRHLTVGEEWSQDLHSSGRTDLKYSYRFVCDEHYYGEGCSVFCRPRDDAFGHFTCGERGEKVCNPGWKGPYCTEPICLPGCDEQHGFCDKPGECKCRVGWQGRYCDECIRYPGCLHGTCQQPWQCNCQEGWGGLFCNQDLNYCTHHKPCKNGATCTNTGQGSYTCSCRPGYTGATCELGIDECDPSPCKNGGSCTDLENSYSCTCPPGFYGKICELSAMTCADGPCFNGGRCSDSPDGGYSCRCPVGYSGFNCEKKIDYCSSSPCSNGAKCVDLGDAYLCRCQAGFSGRHCDDNVDDCASSPCANGGTCRDGVNDFSCTCPPGYTGRNCSAPVSRCEHAPCHNGATCHERGHRYVCECARGYGGPNCQFLLPELPPGPAVVDLTEKLEGQGGPFPW |  |  |  |  |  |  |  |  |  | form colonies in soft agar | normal levels of F-actin stress fibers and focal adhesion sites | decrease |
